Data from patent publication US20250041429A1, “COMPOUND HAVING BTK PROTEIN DEGRADATION ACTIVITY, AND MEDICAL USES THEREOF” (UBIX THERAPEUTICS, INC., priority 2021, published 2025).

Target: T1, BTK protein (Homo sapiens, UniProt Q06187)
T1 construct: endogenous in cells; host or cells: TMD-8 cells
Experiment: Measurement of BTK protein degradation ability in TMD-8 cells (Western blotting)
Format: cell-based
Settings: harvested after 24 hours; for BTK degradation (%) 1 nM: compound 1 nM; for BTK degradation (%) 10 nM: compound 10 nM; for BTK degradation (%) 100 nM: compound 100 nM
Summary of the method: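 TMD-8 cells (1×10^6/mL) were treated for 24 h with compound at 0.1, 1, 10 μM or 0.0001–0.1 μM, with DMSO as vehicle control. RIPA lysates were normalized by BCA assay. BTK was detected by Western blot with anti-BTK, using GAPDH or β-actin as loading controls, and imaged on LI-COR Odyssey.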

T1 sequence (Q06187 whole entry): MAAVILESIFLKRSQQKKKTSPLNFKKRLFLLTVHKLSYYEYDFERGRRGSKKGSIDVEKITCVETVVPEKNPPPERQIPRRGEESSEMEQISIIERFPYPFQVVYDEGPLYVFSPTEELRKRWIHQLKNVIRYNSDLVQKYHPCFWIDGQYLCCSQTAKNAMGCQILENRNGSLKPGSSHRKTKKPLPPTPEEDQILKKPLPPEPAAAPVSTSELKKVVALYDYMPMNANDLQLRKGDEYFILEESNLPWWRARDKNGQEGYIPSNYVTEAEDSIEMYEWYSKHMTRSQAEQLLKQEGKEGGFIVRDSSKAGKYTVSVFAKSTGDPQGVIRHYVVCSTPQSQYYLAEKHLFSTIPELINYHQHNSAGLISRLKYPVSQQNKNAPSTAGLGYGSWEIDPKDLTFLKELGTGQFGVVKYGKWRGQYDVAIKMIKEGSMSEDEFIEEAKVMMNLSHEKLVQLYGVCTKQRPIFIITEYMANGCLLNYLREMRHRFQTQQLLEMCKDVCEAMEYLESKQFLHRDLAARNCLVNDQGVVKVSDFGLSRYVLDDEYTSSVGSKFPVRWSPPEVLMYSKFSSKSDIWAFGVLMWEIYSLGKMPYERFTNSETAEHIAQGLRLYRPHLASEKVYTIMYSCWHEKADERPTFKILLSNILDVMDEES

| Compound | BTK degradation (%) 1 nM [%] | BTK degradation (%) 10 nM [%] | BTK degradation (%) 100 nM [%] |
| --- | --- | --- | --- |
| Cc1cc(-c2ccnc(Nc3ccc(N4CCC(CN5CCC(c6ccc(OC7CCC(=O)NC7=O)cc6)CC5)CC4)nc3)n2)ccc1CNC(=O)N1CC(OC(C)C)C1 (stereo not drawn) [Example 144, N-(4-(2-((6-(4-((4-(4-((2,6-dioxopiperidin-3-yl)oxy)phenyl)piperidin-1-yl)methyl)piperidin-1-yl)pyridin-3-yl)amino)pyrimidin-4-yl)-2-methylbenzyl)-3-isopropoxyazetidine-1-carboxamide] | 28.0 | 77.0 | 98.5 |
| Cc1cc(-c2ccnc(Nc3ccc(N4CCC(CN5CCC(c6ccc(NC7CCC(=O)NC7=O)cc6)CC5)CC4)nc3)n2)ccc1CNC(=O)N1CC(OC(C)C)C1 (stereo not drawn) [Example 145, N-(4-(2-((6-(4-((4-(4-((2,6-dioxopiperidin-3-yl)amino)phenyl)piperidin-1-yl)methyl)piperidin-1-yl)pyridin-3-yl)amino)pyrimidin-4-yl)-2-methylbenzyl)-3-isopropoxyazetidine-1-carboxamide] | 27.5 | 85.0 | 99.0 |
| Cc1cc(-c2ccnc(Nc3ccc(N4CCC(CN5CCC(c6ccc(NC7CCC(=O)NC7=O)cc6)CC5)CC4)nc3)n2)ccc1CNC(=O)c1cn(C(C)(C)C)nn1 (stereo not drawn) [Example 146, 1-(tert-butyl)-N-(4-(2-((6-(4-((4-(4-((2,6-dioxopiperidin-3-yl)amino)phenyl)piperidin-1-yl)methyl)piperidin-1-yl)pyridin-3-yl)amino)pyrimidin-4-yl)-2-methylbenzyl)-1H-1,2,3-triazole-4-carboxamide] | 26.5 | 88.0 | 99.0 |
